Drawing on patent US12275733B2, “Substituted pyrido[3,4-b]indoles for the treatment of cartilage disorders” (Sanofi, priority 2016, dated 2025), this text covers EC50 and Emax for 14 compounds.

In the assay the test system is ATDC5 cells. As to the kind of experiment: Chondrogenesis activity assay in ATDC5 cells (collagen type II induction, immunofluorescence). The format is cell-based, mouse. As to conditions: for EC50: collagen type II induction in ATDC5 cells, concentration reaching 50% of maximum induction; for Emax: maximum percent induction of collagen type II relative to internal reference compound at 10 μM, ATDC5 cells. In short, it runs like this: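 Mouse ATDC5 cells in insulin (10 μg/ml)-containing DMEM/F12 differentiation medium with 5% FCS were exposed to compound, typically 40 nM–10 μM at 0.1% DMSO, for 4 days at 37 °C. Intracellular collagen type II was quantified by Alexa Fluor 488 immunostaining with high-content imaging, relative to DMSO and a 10 μM reference compound.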

On to `FC(F)(F)Cn1c2cnccc2c2cc(Cl)cc(-c3cnc4[nH]ccc4c3)c21` [Example 71, 6-Chloro-8-(1H-pyrrolo[2,3-b]pyridin-5-yl)-9-(2,2,2-trifluoro-ethyl)-9H-pyrido[3,4-b]indole], for which, for the setting “Mus musculus”, the response was half-maximal at 1500 nM (EC50) and the Emax was < 20%.
Regarding `CCOC(=O)c1ccc2[nH]c(-c3cc(Cl)cc4c3[nH]c3c(C)nccc34)cc2c1` [Example 203, 2-(6-Chloro-1-methyl-9H-pyrido[3,4-b]indol-8-yl)-1H-indole-5-carboxylic acid ethyl ester], under “Mus musculus”, the EC50 is > 10000 nM and the Emax is < 20%.
Take `CCn1c2cnccc2c2cc(Cl)cc(-c3ccc(OC)nc3)c21` [Example 70, 6-Chloro-9-ethyl-8-(6-methoxy-pyridin-3-yl)-9H-pyrido[3,4-b]indole]: under “Mus musculus”, the EC50 amounted to 570 nM and the Emax was > 80%.
Regarding `Nc1ncc(-c2cc(Cl)cc3c4ccncc4n(CC(F)(F)F)c23)cn1` [Example 132, 5-[6-Chloro-9-(2,2,2-trifluoro-ethyl)-9H-pyrido[3,4-b]indol-8-yl]-pyrimidin-2-ylamine], for the setting “Mus musculus”, the response was half-maximal at 4500 nM (EC50) and the Emax lay in the range of 20 to 50%.
The matching figures for `Cc1nccc2c1[nH]c1c(-c3ccc(Cl)nc3Cl)cc(Br)cc12` [Example 98, 6-Bromo-8-(2,6-dichloro-pyridin-3-yl)-1-methyl-9H-pyrido[3,4-b]indole]: 2400 nM and > 80%.
Regarding `Cc1nccc2c1[nH]c1c(-c3ccc(OC4CCCC4)cc3)cc(Cl)cc12` [Example 225, 6-Chloro-8-(4-cyclopentyloxy-phenyl)-1-methyl-9H-pyrido[3,4-b]indole], under “Mus musculus”, the EC50 is 1700 nM and the Emax is > 80%.
For the setting “Mus musculus”, `FC(F)(F)Cn1c2cnccc2c2cc(Cl)cc(-c3ccc(Cl)nc3)c21` [Example 66, 6-Chloro-8-(6-chloro-pyridin-3-yl)-9-(2,2,2-trifluoro-ethyl)-9H-pyrido[3,4-b]indole] registered an EC50 of 2100 nM and an Emax of 50 to 80%.
Turning to `COCCn1cc(-c2cc(Cl)cc3c4ccncc4n(CC(F)(F)F)c23)cn1` [Example 169, 6-Chloro-8-[1-(2-methoxy-ethyl)-1H-pyrazol-4-yl]-9-(2,2,2-trifluoro-ethyl)-9H-pyrido[3,4-b]indole], the concentration for a half-maximal effect (EC50) is 1100 nM. The compound further displayed an EC50 (Mus musculus) of 1300 nM.
For the setting “Mus musculus”, `Clc1cc(-c2ccc(Cl)nc2Cl)c2[nH]c3cnccc3c2c1` [Example 74, 6-Chloro-8-(2,6-dichloro-pyridin-3-yl)-9H-pyrido[3,4-b]indole] yielded an EC50 of 920 nM and an Emax of 20 to 50%.
The matching figures for `CCc1cc2c([nH]c3c(-c4ccc(OC)cc4)cc(Br)cc32)c(C)n1` [Example 211, 6-Bromo-3-ethyl-8-(4-methoxy-phenyl)-1-methyl-9H-pyrido[3,4-b]indole]: > 3300 nM and < 20%.
In the same order, the values of `Cc1nccc2c1[nH]c1c(-c3ccc(OCCc4ccccc4)cc3)cc(Cl)cc12` [Example 231, 6-Chloro-1-methyl-8-(4-phenethyloxy-phenyl)-9H-pyrido[3,4-b]indole] are > 10000 nM and 20 to 50%.
In the same order, the values of `COc1ccc(-c2cc(Cl)cc3c2[nH]c2c(C)nccc23)cn1` [Example 94, 6-Chloro-8-(6-methoxy-pyridin-3-yl)-1-methyl-9H-pyrido[3,4-b]indole] are 750 nM and > 80%.
Consider `CCn1c2c(-c3ccc(Cl)nc3)cc(Cl)cc2c2ccnc(C)c21` [Example 79, 6-Chloro-8-(6-chloro-pyridin-3-yl)-9-ethyl-1-methyl-9H-pyrido[3,4-b]indole], for which, under “Mus musculus”, the EC50 is 3900 nM and the Emax was > 80%.
In the same order, the values of `CCn1c2cnccc2c2cc(Cl)cc(-c3ccc(Cl)cc3)c21` [Example 131, 6-Chloro-8-(4-chloro-phenyl)-9-ethyl-9H-pyrido[3,4-b]indole] are 780 nM and > 80%.
